Test results as given in publication PMC6455008, “Methylation at the C-3′ in D-Ring of Strigolactone Analogs Reduces Biological Activity in Root Parasitic Plants and Rice” (Frontiers in Plant Science, 2019).
Read-outs that look alike come from different tables or passages of the source.

Assays:
[1] = test system: rice d10 mutant; test: Rice micro tillering bioassay (d10 mutant, hydroponic); format: in vivo
Experimental: Rice seeds (d10) were sterilized with 2.5% sodium hypochlorite for 15 min. After thorough washing with sterile MilliQ water, the seeds were kept in water for 2 days at 30°C in the dark for imbibition and pre-germination. The pre-germinated seeds were then transferred to moist filter paper in 90-mm petri plates and incubated at 30°C overnight. The plates with germinated seeds were then shifted in a growth cabinet with fluorescent white light (130–180 μM m^−2 s^−1) for 1 week. Seven days-old seedlings were moved to 50-ml falcon tubes (one seedling per tube) containing modified half-strength Hoagland nutrient solution in greenhouse. After 1 week, rice plants were treated with 2.5 μM of each SL analog. Mock and GR24 (2.5 μM) were included as control treatments. Six applications of each SL analog were done two times in a week. After 3 weeks of application, number of tillers per plant, plant height, and fresh biomass were measured at final harvest.

[2] = test system: Arabidopsis seedlings; test: Arabidopsis hypocotyl elongation assay; format: in vivo; conditions: Arabidopsis thaliana, compared to control seedlings, read-out: inhibition of hypocotyl growth (reduction in hypocotyl length)
Experimental: (§1) The sterilized Arabidopsis seeds were grown in petri plates that were first kept at 4°C in darkness for 3 days. For hypocotyl study, the petri plates were exposed to continuous white light for 24 h, then transferred to continuous monochromatic red light (20 μmol m^−2 s^−1, 22°C) conditions for another 4 days. For lateral root density, the plates were vertically grown at 22°C in Percival incubator under long day conditions (16 h at 22°C/8 h at 16°C day/night, 60% relative humidity, 60–70 μmol m^−2 s^−1 white light) for 8 days. After scanning, the hypocotyl length and number of lateral roots were recorded using publicly available ImageJ software.^1

[3] = test system: Arabidopsis seedlings; test: Arabidopsis lateral root density assay; format: in vivo; conditions: Arabidopsis thaliana, compared to control seedlings
Experimental: as §1

[4] = test system: S. hermonthica seeds; test: Parasitic seed germination bioassay, Striga; format: in vivo, Striga hermonthica; conditions: for EC50: Striga hermonthica
Experimental: (§4) Germination activity of SL analogs on S. hermonthica and P. aegyptiaca seeds was tested by following the procedure described before ([Jamil et al., 2012]). The preconditioned Striga and Phelipanche seeds were treated with 50 μl of each SL analog solution at a concentration range (10^−5–10^−12 M). GR24 and sterile MilliQ water were included as positive and negative controls, respectively. The treated seeds were allowed to germinate in the dark for 24 h at 30°C (for Striga) and for 1 week at 25°C (for Phelipanche). The germinated and non-germinated seeds were counted under a binocular microscope, and germination rate (in %) was calculated.
(§5) Collected data were analyzed statistically using statistical software package R (version 3.2.2).

[5] = test system: P. aegyptiaca seeds; test: Parasitic seed germination bioassay, Phelipanche; format: in vivo, Phelipanche aegyptiaca
Experimental: as §4, §5

[6] = test system: Striga seeds; test: Stability of formulated SL analogs in sand (Striga germination readout); format: physicochemical, Striga hermonthica; conditions: 1.0 μM, sand, 30°C, 7 days
Experimental: (§2) The stability of formulated SL analogs was further tested in sand culture. About 1.5 ml of silver sand was added in each of 6 wells of 24-well plates. Then, 800 μl of formulated SL analogs (1.0 μM) was added in each of the six wells. The plates were sealed firmly with para-film, wrapped in aluminum foil, and placed at 30°C from day 1 to day 7. After 7 days, glass fiber discs containing preconditioned Striga seeds were placed on the top of each of the six wells and incubated in the dark at 30°C for 24 h. The germinated and non-germinated seeds were counted from each disc. In addition, the viability of formulated SL analogs was also tested in aqueous solution for 7 weeks at 30°C. About 800-μl aqueous solution of formulated SL analogs (1.0 μM) was added in a black Eppendorf tube weekly up to 6 weeks and incubated at 30°C. On the seventh week, about 50 μl of each analog was applied on a glass fiber disc containing preconditioned Striga seed and put again in the dark in sealed petri plates at 30°C for 24 h. Germinated and non-germinated seeds were counted from each disc.

[7] = test system: Striga seeds; test: Stability of formulated SL analogs in aqueous solution under storage (Striga germination readout); format: physicochemical, Striga hermonthica; conditions: 1.0 μM
Experimental: as §2

[8] = target: T1, ShHTL7 (Striga hermonthica, UniProt A0A0M3PNA2); test: In vitro YLG hydrolysis competition assay, ShHTL7; format: biochemical
T1 sequence (A0A0M3PNA2 1-271): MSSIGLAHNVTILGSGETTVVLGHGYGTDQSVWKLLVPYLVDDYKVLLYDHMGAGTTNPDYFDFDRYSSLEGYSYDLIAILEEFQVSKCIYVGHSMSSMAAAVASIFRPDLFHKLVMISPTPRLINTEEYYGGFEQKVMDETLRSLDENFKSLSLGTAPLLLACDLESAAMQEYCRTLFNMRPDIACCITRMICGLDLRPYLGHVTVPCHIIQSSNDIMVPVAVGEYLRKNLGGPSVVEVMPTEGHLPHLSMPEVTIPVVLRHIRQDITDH
Experimental: (§3) Protein expression and purification of ShHTL7 and Oryza sativa D14 (OsD14) was carried out according to the procedure described earlier ([Jamil et al., 2018]). In vitro Yoshimulactone Green (YLG) hydrolysis assays ([Tsuchiya et al., 2015]) were carried out using 3.0 μM of protein ShHTL7 and OsD14 in a reaction buffer (1X PBS buffer, pH 7.3) with 0.1% DMSO at a 100-μl volume on a 96-well black plate (Greiner). For competitive assays, rac-GR24, AR8, MP13, and MP26 (at range between 0.01 and 50 μM) were co-incubated with 1.0 μM of YLG (Tokyo Chemical Industry Co. Ltd., product number E1238) for 60 min at room temperature. Fluorescent intensity was measured by spectraMax i5 (Molecular Devices) at excitation by 480 nm and detection by 520 nm. The change in fluorescence observed over the course of 1 h of YLG in buffer without protein was subtracted from the data collected in presence of protein. IC50 values were calculated by GraphPad (Prism 7).

[9] = target: T2, OsD14 (Oryza sativa subsp. japonica, UniProt Q10QA5); test: In vitro YLG hydrolysis competition assay, OsD14; format: biochemical
T2 construct: made in house
T2 sequence (Q10QA5 1-318): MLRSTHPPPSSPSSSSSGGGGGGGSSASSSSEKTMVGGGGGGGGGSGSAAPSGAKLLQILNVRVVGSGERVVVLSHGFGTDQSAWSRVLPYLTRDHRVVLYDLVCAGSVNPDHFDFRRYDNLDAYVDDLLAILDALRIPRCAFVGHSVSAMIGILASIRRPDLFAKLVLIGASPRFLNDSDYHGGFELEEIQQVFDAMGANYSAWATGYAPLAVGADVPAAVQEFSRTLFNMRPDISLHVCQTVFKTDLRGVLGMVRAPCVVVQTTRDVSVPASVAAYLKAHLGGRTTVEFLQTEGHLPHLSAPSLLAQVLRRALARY
Experimental: as §3

[10] = test system: Striga hermonthica; test: Striga emergence in pots under greenhouse conditions (suicidal germination, rice host); format: in vivo; conditions: formulated 1.0 μM
Experimental: About 10 mg of (ca 4,000) Striga seeds were thoroughly mixed in 2 L of sand and soil mixture (1:1) and added in 3-L perforated plastic pot containing 0.5 L of clean soil in the bottom. Striga seeds were first preconditioned by giving light irrigation and putting pots at 35°C in greenhouse for 10 days. Each pot was sprayed with 20-ml (1.0 μM) formulated SL analogs up to 10 days at 2-day intervals. A light irrigation was given next day of each application to move the compound to Striga seeds and they were allowed to germinate for suicidal death without host for another 1 week. Then, three rice seedlings (5 days old) were planted in the middle of each pot. The rice plants were grown under normal growth condition (30°C, 70% RH) for 8 weeks. Number of emerged Striga plants in each pot were counted.

CC1=C[C@H](O/C=C2/C(=O)O[C@@H]3c4ccccc4C[C@H]23)OC1=O [GR24, reference compound]
inhibition at 2.5 µM ([1]; Oryza sativa, read-out: tillering inhibition): 76%
number of tillers per plant ([1]; SL-deficient d10 mutant, hydroponic, 2.5 μM, twice a week up to 3 weeks, untreated d10 six tillers): 1.4 tillers per plant
plant height compared to mock ([1]; d10 mutant, 2.5 μM): significant increase in plant height
inhibition at 1 µM [2]: 37%
inhibition at 1 µM [3]: 53%
Striga germination rate ([4]; 1.0 μM, formulated and non-formulated, 24 h at 30°C): 75%
EC50 ([4]; read-out: EC50 Striga seed germination, formulated): 0.44 nM
EC50 ([4]; read-out: EC50 Striga seed germination, non-formulated): 1.9 nM
EC50 ([5]; Phelipanche aegyptiaca, read-out: EC50 P. aegyptiaca seed germination, formulated): 9.3 nM
P. aegyptiaca germination rate ([5]; non-formulated, 1.0 μM, 1 week at 25°C): 75%
Striga germination rate on seventh day of incubation in sand [6]: around 20%
Striga germination rate maintained for 5 weeks of storage ([7]; 30°C, 5 weeks): around 38%
Striga germination rate after 6 weeks of storage ([7]; 30°C, 6 weeks): 11%
Striga germination rate before storage ([7]; before storage): 76%
IC50 [8]: 1640 ± 520 nM
IC50 [9]: 1240 ± 90 nM
decrease in Striga emergence compared to mock at 10 WAS ([10]; 10 weeks after sowing): 82%
Striga hermonthica emergence, 5 WAS ([10]; mean ± SE, n=5, 5 weeks after sowing): 0.0±0.0
Striga hermonthica emergence, 6 WAS ([10]; mean ± SE, n=5, 6 weeks after sowing): 0.0±0.0
Striga hermonthica emergence, 7 WAS ([10]; mean ± SE, n=5, 7 weeks after sowing): 1.0±0.6
Striga hermonthica emergence, 8 WAS ([10]; mean ± SE, n=5, 8 weeks after sowing): 1.6±0.5
Striga hermonthica emergence, 9 WAS ([10]; mean ± SE, n=5, 9 weeks after sowing): 1.6±0.5
Striga hermonthica emergence, 10 WAS ([10]; mean ± SE, n=5, 10 weeks after sowing): 2.4±0.8
percent decrease in Striga hermonthica emergence over mock, 8 WAS ([10]; negative = decrease, 8 WAS): -85%
percent decrease in Striga hermonthica emergence over mock, 9 WAS ([10]; negative = decrease, 9 WAS): -84%
percent decrease in Striga hermonthica emergence over mock, 10 WAS ([10]; negative = decrease, 10 WAS): -82%
